15 molecules from ChEMBL document CHEMBL1201862, “PubChem BioAssay data set” (2004) can be followed below.

Each structure is given as a SMILES string.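 Where inhibition never reached the appropriate level, the endpoint shown equals the highest concentration tested. Otherwise, values were interpolated linearly from a five-concentration, 48-hour dose response in 96-well plates. GI50 = concentration required for 50% inhibition of growth.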 The source made the active and inactive calls. Cut-off read from the data, not from the text of the source: active = GI50 up to about 1.1 µM and inactive = higher. Bounds are passed on as bounds.

What all share (experiment): NCI-60 cell line screen, 48 h
Experiment [1] concerns BT-549.
In experiment [2] the test system is COLO 205.
In experiment [3] the test system is EKVX.
The test system of experiment [4] is HL-60.
The test system of experiment [5] is M14.
Experiment [6] has as its system MDA-MB-231.
Experiment [7] relates to MDA-N.
Experiment [8] relates to Malme-3M.
Experiment [9] relates to NCI-H226.
Experiment [10] concerns NCI-H23.
Experiment [11] has as its system OVCAR-5.
The test system of experiment [12] is PC-3.
Experiment [13] relates to SF-539.
The subject of experiment [14] is U-251.
The test system of experiment [15] is RXF 393.
Experiment [16] concerns SNB-75.

On to `COc1cccc(/C=C2\S/C(=N/Nc3nc(-c4ccc([N+](=O)[O-])cc4)cs3)NC2=O)c1O`, for which the GI50 is 4.23 µM (inactive) in [1]; 16.4 µM (inactive) in experiment [2]; 17.4 µM (inactive) in experiment [3]; 4.45 µM (inactive) in experiment [4]; 17 µM (inactive) in experiment [5]; 18.4 µM (inactive) in experiment [6]. For the same molecule, the GI50 in [7] was 22.2 µM (inactive); in experiment [8] it was 20.5 µM (inactive); in experiment [9] it was 14.9 µM (inactive); in [10], 11.7 µM (inactive); in [11] it was 25.3 µM (inactive); in [12], 16.1 µM (inactive). In addition, the GI50 in experiment [13] is 7.82 µM (inactive); in experiment [14] it was 1.8 µM (inactive).
`CCc1c(-c2ccc(OC)cc2)oc(OC)c(C)c1=O`: the GI50 is 93.8 µM (inactive) in [1]; > 100 µM (inactive) in experiment [2]; 63.4 µM (inactive) in experiment [3]; > 100 µM (inactive) in experiment [5]; 75.7 µM (inactive) in [6]; > 100 µM (inactive) in [10]. For the same molecule, the GI50 in experiment [11] is > 100 µM (inactive); in experiment [12] it was 57.4 µM (inactive); in experiment [15], > 100 µM (inactive); in [13] it was > 100 µM (inactive); in experiment [16], 33.2 µM (inactive); in [14], > 100 µM (inactive).
With `COC(=O)c1ccc(NC(=O)c2cc3c(cc2Br)OCO3)o1`, the GI50 in experiment [1] was 39.5 µM (inactive); in [2] it was > 100 µM (inactive); in experiment [3], > 100 µM (inactive); in experiment [4] it was > 100 µM (inactive); in experiment [5] it was > 100 µM (inactive); in experiment [6], > 100 µM (inactive). Moreover, the GI50 in experiment [7] is 42.5 µM (inactive); in experiment [9] it was > 100 µM (inactive); in experiment [10] it was > 100 µM (inactive); in [11] it was > 100 µM (inactive); in experiment [12] it was > 100 µM (inactive); in [13], > 100 µM (inactive). Moreover, the GI50 in [14] was > 100 µM (inactive).
Turning to `N#CC(C#N)=Cc1ccc(C=C2SC3=C(SCCS3)S2)s1`, the GI50 in [1] is 1.28 µM (inactive); in [2] it was 8.73 µM (inactive); in experiment [3] it was > 100 µM (inactive); in experiment [4], 0.286 µM (active); in experiment [5], 12.4 µM (inactive); in [6] it was 33.7 µM (inactive). For the same molecule, the GI50 in [7] was 0.618 µM (active); in experiment [8], > 100 µM (inactive); in [9], 2.27 µM (inactive); in experiment [10], 6.68 µM (inactive); in experiment [11], 3.72 µM (inactive); in [12], 6.04 µM (inactive). Moreover, the GI50 in [13] was 0.63 µM (active); in experiment [16] it was 16.7 µM (inactive); in [14], 12.4 µM (inactive).
With `CC(NC(=O)OC(C)(C)C)C(=O)NC1CCCC1` (configuration not stated), the GI50 in experiment [2], in [3], in experiment [4], in experiment [5], in experiment [7] and in [8] was > 100 µM (inactive) in each case. In addition, the GI50 in experiment [9], in [10], in [11], in experiment [12], in experiment [15] and in experiment [16] was > 100 µM (inactive) throughout.
Regarding `CCOC(=O)N1C(=S)C(C(=O)OC)(C(=O)OC)N=C1C`, the GI50 in experiment [1], in experiment [2], in experiment [3], in experiment [4], in [5] and in experiment [7] was > 100 µM (inactive) each time. Besides, the GI50 in experiment [9], in [10], in [11], in experiment [12], in experiment [15] and in experiment [16] was > 100 µM (inactive) each time. For the same molecule, the GI50 in [14] was > 100 µM (inactive).
In the case of `CCOC(=O)CC(N1CC1)N1CC1`, the GI50 in [2], in [3], in experiment [4], in [5], in experiment [6] and in experiment [7] was > 10 µM (inactive) throughout. Besides, the GI50 in experiment [8], in [9], in experiment [10], in [11], in experiment [12] and in experiment [15] was > 10 µM (inactive) each time. In addition, the GI50 in [13], in experiment [16] and in experiment [14] was > 10 µM (inactive) in each case.
`CC(C)c1ccc(/C=C2\CSCC3=C2N=C2SCC(=O)N2C3c2ccc(C(C)C)cc2)cc1` (configuration not stated): the GI50 in [2], in experiment [3], in experiment [4], in [5], in experiment [6] and in experiment [7] was > 100 µM (inactive) each time. The GI50 in [8] is 96.4 µM (inactive); in experiment [9] it was > 100 µM (inactive); in [10] it was > 100 µM (inactive); in experiment [11], > 100 µM (inactive); in experiment [12] it was > 100 µM (inactive); in experiment [13] it was > 100 µM (inactive). Besides, the GI50 in [16] is > 100 µM (inactive); in experiment [14], 64.3 µM (inactive).
Consider `Cc1c(C)c2ccc(OCC(O)COC(C)C)c(C)c2oc1=O` (configuration not stated), for which the GI50 is > 10 µM (inactive) in [2]; 45.5 µM (inactive) in [3]; 35 µM (inactive) in experiment [4]; 20.8 µM (inactive) in [5]; 17.7 µM (inactive) in experiment [7]; 16.2 µM (inactive) in [8]. Further, the GI50 was 91.6 µM (inactive) in experiment [10], 39.1 µM (inactive) in experiment [11], 45.2 µM (inactive) in experiment [12] and 16.2 µM (inactive) in experiment [14].
With `CC1(C)COC(c2cccc(C3=NC(C)(C)CO3)c2Br)=N1`, the GI50 in experiment [1], in experiment [2], in experiment [3], in experiment [4], in experiment [5] and in [6] was > 100 µM (inactive) in each case. For the same molecule, the GI50 in experiment [8], in [9], in [10], in experiment [11], in experiment [12] and in experiment [15] was > 100 µM (inactive) in each case. The GI50 in experiment [13] is > 100 µM (inactive); in experiment [16], 3.05 µM (inactive); in experiment [14], > 100 µM (inactive).
For `C/C(=N\NC(=O)Nc1ccccc1Cl)c1ccc(O)cc1`, the GI50 in experiment [1], in experiment [2], in experiment [3], in [4], in [5] and in [6] was > 100 µM (inactive) each time. Further, the GI50 in [7], in experiment [8], in [9], in [10], in experiment [11] and in experiment [12] was > 100 µM (inactive) each time. Further, the GI50 in experiment [13] is > 100 µM (inactive); in experiment [16], 34.1 µM (inactive); in experiment [14], 77.6 µM (inactive).
Regarding `C/C(=N/NC(=S)NCCc1ccccn1)c1cnccn1`, the GI50 in [1] is 32.5 µM (inactive); in experiment [2], 3.8 µM (inactive); in [3], 10.9 µM (inactive); in experiment [5] it was 24 µM (inactive); in experiment [6], 26.2 µM (inactive); in experiment [7], 53 µM (inactive). The GI50 in experiment [8] was 6.37 µM (inactive); in experiment [10], 38.6 µM (inactive); in [11], 79.3 µM (inactive); in [12], 48.8 µM (inactive); in experiment [16], > 100 µM (inactive); in [14] it was 20.2 µM (inactive).
For `CC(C)=CC1C(C(=O)OCc2cc3c(cc2Cl)OCO3)C1(C)C` (configuration not stated), the GI50 is 63 µM (inactive) in [1]; 13.5 µM (inactive) in experiment [3]; 36.7 µM (inactive) in experiment [5]; 13.5 µM (inactive) in experiment [6]; 24.7 µM (inactive) in experiment [7]; 15.5 µM (inactive) in [8]. In addition, the GI50 in [9] is 39.6 µM (inactive); in experiment [10], 25.8 µM (inactive); in experiment [11] it was 39.2 µM (inactive); in experiment [12] it was 11.5 µM (inactive); in [15], 44.1 µM (inactive); in [16] it was 26.9 µM (inactive). Further, the GI50 in experiment [14] is 12.6 µM (inactive).
On to `CC(=O)OC12c3ccccc3-c3ccccc3C1C(C(=O)O)C2C(=O)O` (configuration not stated), for which the GI50 in experiment [2] is > 10 µM (inactive); in experiment [3] it was > 10 µM (inactive); in experiment [4] it was > 10 µM (inactive); in experiment [5] it was > 10 µM (inactive); in experiment [6] it was > 10 µM (inactive); in [8] it was 1.2 µM (inactive). Besides, the GI50 in experiment [9], in experiment [10], in [11], in experiment [12], in experiment [15] and in [13] was > 10 µM (inactive) each time. The GI50 in experiment [14] was > 10 µM (inactive).
Take `Oc1cc(-c2ccc3ccccc3c2)nc2ncc(Cl)cc12`: the GI50 in experiment [1] is 37.8 µM (inactive); in experiment [2] it was 3.81 µM (inactive); in [3], 14.5 µM (inactive); in experiment [5], 8.17 µM (inactive); in experiment [6] it was 15.6 µM (inactive); in experiment [8] it was 4.05 µM (inactive). The GI50 in experiment [9] was 12 µM (inactive); in [10] it was 7.14 µM (inactive); in experiment [11], 64.9 µM (inactive); in experiment [13], 5.62 µM (inactive); in [16], 1.98 µM (inactive).
